Data set [1] can be described thus: Plasma pharmacokinetics. It is filed as in vivo, male BALB/c mice. Conditions: male, BALB/c, mouse, in vivo, iv; for Vd: 10 mg/kg, Route i.v., read-out: Vss.
The subject of data set [2] is S. pneumoniae. Nature of the data set: Minimal inhibitory concentration, microbroth dilution. It is filed as cell-based. Conditions: Streptococcus pneumoniae, read-out: Minimal Inhibitory Concentrations (μM) S. pneumoniae. The gist of the method: (§1)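 Growth inhibition was scored visually after overnight aerobic culture at 37 °C in CLSI-style microdilution plates. Inocula contained about 10^5 cfu/mL, and compound concentrations descended in twofold steps from 200 μM.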

The subject of data set [3] is B. subtilis. Described as above. It is filed as cell-based. Conditions: Bacillus subtilis, read-out: Minimal Inhibitory Concentrations (μM) B. subtilis. The gist of the method:
as §1

Data set [4] in a line: Cytotoxicity assay (CellTiter-Glo cell viability). It is filed as cell-based. Conditions: African green monkey. The procedure:
Cytotoxicity was determined by determining the effect of compounds on cell viability. Vero (kidney epithelial cells; ATCC CCL-81) monolayers were trypsinized and 5000 cells/well were seeded (10-15% confluency) into white-wall, flat bottom 96 well microwell plates (Corning) using enriched Dulbecco's Modified Eagle's Medium (Hyclone: DMEM/High Glucose) containing 10% Fetal Bovine Serum (ATCC-30-2020). Plates were incubated overnight at 37° C. in the presence of 5% CO2. Drug-free media was then replaced with media containing serial dilutions of test compound or DMSO carrier. After an additional 72 hours of incubation, viability was indirectly measured using the CellTiter-Glo® Luminescent Cell Viability (Promega) assay. Assay plates were read at peak emission wavelength of 560 nm using a EnVision® Multilabel Plate Reader (Perkin Elmer) or PHERAstar FS Multilabel reader (BMG, Cary, N.C.). The concentration of test compounds that inhibited growth by 50% (IC50 value) was computed using nonlinear regression based fitting of inhibition curves using log [inhibitor] vs. response-variable slope (four parameters)—symmetrical equation, in GraphPad Prism version 6 [GraphPad Software, La Jolla, Calif. USA, www.graphpad.com]. For each experiment, compounds were tested in duplicate. IC50 values presented are the range of two biologically independent experiments.

In brackets after ≈: the same amount, converted by molar mass. Read-outs that look alike come from different tables or passages of the source. Numbered stars: 1 amine (or outer) side, 2 acyl side, 3 side chain; on linkers, the order of the positions; unused ones are H or OH. Bridge positions count the residues as written; N and C are the ends. Square brackets hold non-standard residues; d marks the D form. Peptide text beside a SMILES is read from it. * marks the point of attachment. Piperazine(2S-CO,4-Me) = CN1CCN[C@H](C(=O)O)C1; Phe(3,5-F2) = N[C@@H](Cc1cc(F)cc(F)c1)C(=O)O; NH(1-Me-indolin-5-yl) = CN1CCc2cc(N*)ccc21; Morpholine(3S-CO) = O=C(O)[C@@H]1COCCN1; Phe(3-Me) = Cc1cccc(C[C@H](N)C(=O)O)c1; NH(4-Cl-2-F-phenyl) = Fc1cc(Cl)ccc1N*; Pro(4R-Me) = C[C@H]1CN[C@H](C(=O)O)C1; Hyp = O=C(O)[C@@H]1C[C@@H](O)CN1; aThr = C[C@H](O)[C@H](N)C(=O)O; Pip = O=C(O)[C@@H]1CCCCN1; CO = O=C([*:1])[*:2]

For `Cc1cccc(C[C@H](NC(=O)Nc2ccc(Cl)cc2F)C(=O)N[C@@H]2C(=O)N3C[C@H](O)C[C@H]3C(=O)N3CCCC[C@H]3C(=O)N[C@@H](C)C(=O)N3C[C@H](C)C[C@H]3C(=O)O[C@H]2C)c1` [Compound 6, (S)-2-(3-(4-CHLORO-2-FLUOROPHENYL)UREIDO)-N-((2R,6S,8AS,14AS,16R,20S,21S,23AS)-16-HYDROXY-2,6,21-TRIMETHYL-5,8,14,19,23-PENTAOXOOCTADECAHYDRO-1H,5H,14H,19H-PYRIDO[2,1-I]DIPYRROLO[2,1-C:2′,1′-L][1]OXA[4,7,10,13]TETRAAZACYCLOHEXADECIN-20-YL)-3-(M-TOLYL)PROPANAMIDE] ({NH(4-Cl-2-F-phenyl)-CO}-[Phe(3-Me)][aThr][Hyp][Pip]A[Pro(4R-Me)]; ester 2-C), in data set [1], the AUC(0-inf) was found to be 11900 ng·h/mL, the AUC(0-t) turned out to be 11500 ng·h/mL, the “C^0” value came to 34296.43 ng/mL and the clearance was found to be 14 mL/min/kg. Moreover, in data set [1], the half-life was 2.82 h and the Vd turned out to be 1.02 L/kg. Also, the MIC in data set [2] (MIC) stood at 0.039 µM (≈ 0.0328 µg/mL). Moreover, the MIC in data set [3] (MIC) turned out to be 0.156 µM (≈ 0.131 µg/mL). The compound further had an IC50 at 72 h in data set [4] of 50.5 ± 3.8 µM.
`Cc1cccc(C[C@H](NC(=O)Nc2ccc(Cl)cc2F)C(=O)N[C@@H]2C(=O)N3CCC[C@H]3C(=O)N3CCN(C)C[C@H]3C(=O)N[C@@H](C)C(=O)N3C[C@H](C)C[C@H]3C(=O)O[C@H]2C)c1` [Compound 11, (S)-2-(3-(4-CHLORO-2-FLUOROPHENYL)UREIDO)-N-((6AS,12S,13S,15AS,17R,21S,23AS)-2,13,17,21-TETRAMETHYL-6,11,15,20,23-PENTAOXOOCTADECAHYDRO-2H,6H,11H,15H-PYRAZINO[2,1-I]DIPYRROLO[2,1-C:2′,1′-L][1]OXA[4,7,10,13]TETRAAZACYCLOHEXADECIN-12-YL)-3-(M-TOLYL)PROPANAMIDE] ({NH(4-Cl-2-F-phenyl)-CO}-[Phe(3-Me)][aThr]P[Piperazine(2S-CO,4-Me)]A[Pro(4R-Me)]; ester 2-C): in data set [1], the AUC(0-inf) worked out at 5040 ng·h/mL, the AUC(0-t) turned out to be 5000 ng·h/mL, the “C^0” value is on record as 9127.72 ng/mL and the clearance was 33.1 mL/min/kg. In addition, in data set [1], the half-life was 1.35 h and the Vd stood at 2.28 L/kg. Further, in data set [2] (MIC), the MIC came to 0.039 µM (≈ 0.0327 µg/mL). The MIC in data set [3] (MIC) is 0.078 µM (≈ 0.0655 µg/mL). Besides, the IC50 at 72 h in data set [4] is above 10 µM.
In the case of `Cc1cccc(C[C@H](NC(=O)Nc2ccc(Cl)cc2F)C(=O)N[C@H]2COC(=O)[C@@H]3C[C@@H](C)CN3C(=O)[C@H](C)NC(=O)[C@@H]3CCCCN3C(=O)[C@@H]3C[C@H](N)CN3C2=O)c1` [Compound 12, (S)—N-((2R,6S,8AS,14AS,16S,20S,23AS)-16-AMINO-2,6-DIMETHYL-5,8,14,19,23-PENTAOXOOCTADECAHYDRO-1H,5H,14H,19H-PYRIDO[2,1-I]DIPYRROLO[2,1-C:2′,1′-L][1]OXA[4,7,10,13]TETRAAZACYCLOHEXADECIN-20-YL)-2-(3-(4-CHLORO-2-FLUOROPHENYL)UREIDO)-3-(M-TOLYL)PROPANAMIDE], the MIC in data set [2] (MIC) was found to be 0.156 µM (≈ 0.129 µg/mL); in data set [3] (MIC), 1.25 µM (≈ 1.03 µg/mL). In data set [4], the half-inhibitory concentration (IC50) at 72 h is above 50 µM.
Take `C[C@@H]1C[C@H]2C(=O)O[C@@H](C)[C@H](NC(=O)[C@H](Cc3cc(F)cc(F)c3)NC(=O)Nc3ccc4c(c3)CCN4C)C(=O)N3CCC[C@H]3C(=O)N3CCOC[C@H]3C(=O)N[C@@H](C)C(=O)N2C1` [Compound 32] ({NH(1-Me-indolin-5-yl)-CO}-[Phe(3,5-F2)][aThr]P[Morpholine(3S-CO)]A[Pro(4R-Me)]; ester 2-C): the MIC worked out at 0.078 µM (≈ 0.0664 µg/mL) in data set [2] and 0.313 µM (≈ 0.266 µg/mL) in data set [3]. Further, the IC50 at 72 h in data set [4] (Vero cells, 72 hours, read-out: Cytotoxicity IC50) amounted to 2.87 µM.
Turning to `C[C@@H]1C[C@H]2C(=O)OC[C@H](NC(=O)[C@H](Cc3cc(F)cc(F)c3)NC(=O)Nc3ccc(Cl)cc3F)C(=O)N3CCC[C@H]3C(=O)N3CCN(C)C[C@H]3C(=O)N[C@@H](C)C(=O)N2C1` [Compound 34] ({NH(4-Cl-2-F-phenyl)-CO}-[Phe(3,5-F2)]SP[Piperazine(2S-CO,4-Me)]A[Pro(4R-Me)]; ester 2-C), the values for the MIC in data set [2] (MIC) and in data set [3] (MIC) were 0.039 µM (≈ 0.033 µg/mL) and below 0.02 µM, respectively. Also, the IC50 at 72 h in data set [4] is above 50 µM.

For the origin of these results see patent US10570179B2, “Substituted urea depsipeptide analogs as activators of the CLPP endopeptidase” (priority 2016, dated 2020).
